Data published in US10294237B2, “Bicyclic heterocyclic amide derivative” (Sumitomo Dainippon Pharma Co., Ltd., priority 2015, dated 2019).

How the values were obtained:
HCT-116 cells [1] = experiment: Test for inhibiting sphere-forming ability of cancer cells; format: cell-based; settings: HCT-116 spheres, non-adherent, serum-free, 4 days, CellTiter-Glo, read-out: IC50 (Sphere IC50 value; concentration for 50% inhibition of cell proliferation)
Description: (§1) The reliable methods established for measuring the self-renewal ability of cells which is one of the CSC's properties include a method for measuring the sphere-forming ability of cancer cells in non-adherent condition in the absence of serum (Cancer Res 65, 5506-5511 (2005)). HCT-116 cells were available from the American Type Culture Collection (ATCC). HCT-116 cells were cultured at 37° C. and 5% CO2 using the McCoy's 5a medium containing 10% fetal bovine serum (FBS) and 1% penicillin/streptomycin. HCT-116 cells were seeded in a 384 Well Black Clear Bottom Ultra-Low Attachment Microplate (Corning Cat. No. 3827) in an amount of 350-800 cells/well using the DMEM/F12 medium containing 2% B27 supplement (GIBCO), 20 ng/mL epidermal growth factor (EGF) (peprotech), 10 ng/mL basic fibroblast growth factor (bFGF) (peprotech), 5 μg/mL insulin (Sigma), and 1% penicillin/streptomycin. The test compounds were added into each well to adjust the final concentration of DMSO to 0.1%, and the cells were cultured for 4 days. The number of viable cells in each well was then measured with CellTiter-Glo® Luminescent Cell Viability Assay (Promega) to calculate the concentration of each test compound for 50% inhibition of cell proliferation (Sphere IC50 value; μmol/L).
The experiment of Test Example 1 was performed for the compounds of each Example. The concentrations of each test compound for 50% inhibition of cell profeliration (Sphere IC50 value; μmol/L) are shown in the following Table.

HCT-116 cells [2] = experiment: Test for inhibiting sphere-forming ability of cancer cells (in the presence of BSA); format: cell-based; settings: HCT-116 spheres, non-adherent, 5% BSA, 4 days, CellTiter-Glo, read-out: IC50 (Sphere IC50 value; concentration for 50% inhibition of cell proliferation)
Description: as §1, with “HCT-116” for “The reliable methods established for measuring the self-renewal ability of cells which is one of the CSC's properties include a method for measuring the sphere-forming ability of cancer cells in non-adherent condition in the absence of serum (Cancer Res 65, 5506-5511 (2005)). HCT-116”, “(Sigma), 5% bovine serum albumin (BSA),” for “(Sigma),”
The experiment of Test Example 2 was performed for the compounds of each Example. The concentrations of each test compound for 50% inhibition of cell profeliration (Sphere IC50 value; μmol/L) are shown in the following Table.

HCT-116 cells [3] = experiment: Anti-tumor effect to HCT-116 tumor-bearing mouse; format: in vivo; settings: oral, administration period 17 days, nude mouse
Text: The present compound can be used to evaluate the anti-tumor effect thereof. A 4 to 7-week-old nude mouse (BALB/cAnNCrj-nu/nu, female, CHARLES RIVER LABORATORIES JAPAN, INC.) received intradermal transplantation of HCT-116 cells (ATCC) in an amount of 3×10^6 cells/mouse around the ventral portion. The engraftment of HCT-116 cells was observed 5 to 14 days after the transplantation, and then each compound suspended in a solvent such as 0.5% methylcellulose solution was orally administrated to the mouse in a dose of 1 to 100 mg/kg one to twice daily. The tumor volume was measured over time after the administration to evaluate the effect for reducing the tumor volume by the administration of each compound. The tumor volume can be calculated from the minor axis and the major axis of the tumor measured with a digital caliper (Mitutoyo) according to the following formula: Tumor volume [mm^3]=0.5×minor axis [mm]×(major axis [mm])^2
The tumor volume in control administration group treated with only a solvent such as 0.5% methylcellulose solution was compared with that of the present compound administration group, and T/C value was calculated according the following formula to evaluate the anti-tumor effect of the present compound. T/C(%)=(the tumor volume at the end of administration in the present compound administration group−the tumor volume at the start of administration in the present compound administration group)/(the tumor volume at the end of administration in the control administration group−the tumor volume at the start of administration in the control administration group)×100
The T/C values (%) of the present compound on each dosage and administration period in the HCT-116 tumor-bearing mouse are shown below.

| SMILES | IC50 (HCT-116 cells [1]; Homo sapiens, 96 h) | IC50 (HCT-116 cells [2]; Homo sapiens, HCT-116, 96 h) | T/C (HCT-116 cells [3]; dosage 30 mg/kg) | T/C (HCT-116 cells [3]; dosage 100 mg/kg) | T/C (HCT-116 cells [3]; dosage 10 mg/kg) | IC50 (HCT-116 cells [1]) | IC50 (HCT-116 cells [2]) |
| --- | --- | --- | --- | --- | --- | --- | --- |
| O=C(Nc1cn(Cc2cccc(C(F)(F)F)c2)cn1)c1cnc2c(c1)CCNC2 [Example 13, N-{1-[3-(trifluoromethyl)benzyl]-1H-imidazol-4-yl}-5,6,7,8-tetrahydro-1,7-naphthyridine-3-carboxamide] | 30 nM | 60 nM | 62% | 59% |  |  |  |
| O=C(Nc1cn(Cc2cccc(C(F)(F)F)c2)cn1)c1ccc2c(n1)CCNC2 [Example 10, N-{1-[3-(trifluoromethyl)benzyl]-1H-imidazol-4-yl}-5,6,7,8-tetrahydro-1,6-naphthyridine-2-carboxamide] | 40 nM | 50 nM | 55% | 49% |  |  |  |
| O=C(Nc1cn(Cc2cc(F)c(F)c(F)c2)cn1)c1ccc2c(n1)CCNC2 [Example 11, N-[1-(3,4,5-trifluorobenzyl)-1H-imidazol-4-yl]-5,6,7,8-tetrahydro-1,6-naphthyridine-2-carboxamide] | 50 nM | 50 nM | 62% | 46% |  |  |  |
| O=C(Nc1cn(Cc2cc(F)c(F)c(F)c2)cn1)c1cc(F)c2c(c1)CCNC2 [Example 5, 8-fluoro-N-[1-(3,4,5-trifluorobenzyl)-1H-imidazol-4-yl]-1,2,3,4-tetrahydroisoquinoline-6-carboxamide] | 70 nM | 60 nM | 71% | 42% |  |  |  |
| O=C(Nc1cc2c(cn1)CNCC2)c1cn(Cc2cc(F)c(F)c(F)c2)cn1 [Example 3, N-(5,6,7,8-tetrahydro-2,7-naphthyridin-3-yl)-1-(3,4,5-trifluorobenzyl)-1H-imidazole-4-carboxamide] | 60 nM | 30 nM | 79% |  | 90% |  |  |
| O=C(Nc1cn(Cc2cccc(C(F)(F)F)c2)cn1)c1cc2c(cn1)CNCC2 [Example 9, N-{1-[3-(trifluoromethyl)benzyl]-1H-imidazol-4-yl}-5,6,7,8-tetrahydro-2,7-naphthyridine-3-carboxamide] | 70 nM | 500 nM |  |  |  |  |  |
| O=C(Nc1cn(Cc2cccc(Oc3ccccc3)c2)cn1)c1cnc2c(c1)CCNC2 [Example 50, N-[1-(3-phenoxybenzyl)-1H-imidazol-4-yl]-5,6,7,8-tetrahydro-1,7-naphthyridine-3-carboxamide] | 50 nM | 660 nM |  |  |  |  |  |
| O=C(Nc1cn(CC2CCCCC2)cn1)c1cnc2c(c1)CCNC2 [Example 55] |  |  |  |  |  | 80 nM | 50 nM |
| O=C(Nc1cn(Cc2cccc(C(F)(F)F)c2)cn1)c1cc2c(s1)CCNC2 [Example 16] | 5850 nM | 6000 nM |  |  |  |  |  |
| Cc1ccccc1Cn1cnc(NC(=O)c2ccc3c(c2)CCNC3)c1 [Example 76] |  |  |  |  |  | 680 nM | 590 nM |
| O=C(Nc1cn(Cc2ccc(Cl)c(C(F)(F)F)c2)cn1)c1ccc2c(c1)CCNC2 [Example 93, N-{1-[4-chloro-3-(trifluoromethyl)benzyl]-1H-imidazol-4-yl}-1,2,3,4-tetrahydroisoquinoline-6-carboxamide] | < 10 nM | 70 nM |  |  |  |  |  |
| O=C(Nc1cn(Cc2cc(Br)cc(Br)c2)cn1)c1ccc2c(c1)CCNC2 [Example 96] | 60 nM | 200 nM |  |  |  |  |  |
| O=C(Nc1cn(Cc2ccccc2C(F)(F)F)cn1)c1cnc2c(c1)CCNC2 [Example 62] |  |  |  |  |  | 710 nM | 590 nM |
| Cc1nc(NC(=O)c2ccc3c(c2)CCNC3)cn1Cc1cccc(C(F)(F)F)c1 [Example 22] | 200 nM | 580 nM |  |  |  |  |  |
| O=C(Nc1cn(Cc2cccc(OC(F)(F)F)c2)cn1)c1cnc2c(c1)CCNC2 [Example 49, N-{1-[3-(trifluoromethoxy)benzyl]-1H-imidazol-4-yl}-5,6,7,8-tetrahydro-1,7-naphthyridine-3-carboxamide] | 70 nM | 70 nM |  |  |  |  |  |
| O=C(Nc1cn(Cc2cc(F)c(F)c(F)c2)cn1)c1ccc2c(c1F)CCNC2 [Example 14] | 430 nM | 460 nM |  |  |  |  |  |
| O=C(Nc1cn(Cc2cccc(C(F)(F)F)c2)cn1)c1ccc2c(c1)CCCN2 [Example 27] | 690 nM | 6010 nM |  |  |  |  |  |
| O=C(Nc1cn(Cc2cc(F)c(F)c(F)c2)cn1)c1ccc2c(c1)CCNC2 [Example 6, N-[1-(3,4,5-trifluorobenzyl)-1H-imidazol-4-yl]-1,2,3,4-tetrahydroisoquinoline-6-carboxamide] |  |  | 73% |  |  | 60 nM | 50 nM |
| O=C(Nc1cn(Cc2cccc(C(F)(F)F)c2)cn1)c1ccc2c(c1F)CCNC2 [Example 15] | 360 nM | 550 nM |  |  |  |  |  |
| O=C(Nc1cn(Cc2cc(F)c(F)c(F)c2)cn1)c1cc2c(cn1)CNCC2 [Example 8, N-[1-(3,4,5-trifluorobenzyl)-1H-imidazol-4-yl]-5,6,7,8-tetrahydro-2,7-naphthyridine-3-carboxamide] | 90 nM | 440 nM |  |  |  |  |  |
| O=C(Nc1cn(Cc2cc(F)cc(Cl)c2)cn1)c1cnc2c(c1)CCNC2 [Example 52, N-[1-(3-chloro-5-fluorobenzyl)-1H-imidazol-4-yl]-5,6,7,8-tetrahydro-1,7-naphthyridine-3-carboxamide] | 60 nM | 60 nM |  |  |  |  |  |
| O=C1Nc2cc(C(=O)Nc3cn(Cc4cccc(C(F)(F)F)c4)cn3)cnc2CO1 [Example 24] | 520 nM | 670 nM |  |  |  |  |  |
| O=C1CCc2cc(C(=O)Nc3cn(Cc4cc(F)c(F)c(F)c4)cn3)ccc2N1 [Example 37] | 90 nM | 590 nM |  |  |  |  |  |
| O=C(Nc1cn(Cc2cc(F)c(F)c(F)c2)cn1)c1cnc2c(c1)CCNC2 [Example 12, N-[1-(3,4,5-trifluorobenzyl)-1H-imidazol-4-yl]-5,6,7,8-tetrahydro-1,7-naphthyridine-3-carboxamide] | 70 nM | 60 nM | 79% | 73% |  |  |  |
| O=C(Nc1cn(Cc2cc(F)c(F)c(F)c2)cn1)c1ccc2c(c1)CCNC2 [Example 25, N-[1-(3,4,5-Trifluorobenzyl)-1H-imidazol-4-yl]-(1,2,3,4-tetrahydroisoquinoline-6-carboxamide ditrifluoroacetate] | 60 nM | 90 nM |  |  |  |  |  |
| Cc1cccc(Cn2cnc(NC(=O)c3ccc4c(c3)CCNC4)c2)c1 [Example 80] |  |  |  |  |  | 620 nM | 600 nM |
| Cc1ccc(Cn2cnc(NC(=O)c3ccc4c(c3)CCNC4)c2)cc1C(F)(F)F [Example 97, N-{1-[4-methyl-3-(trifluoromethyl)benzyl]-1H-imidazol-4-yl}-1,2,3,4-tetrahydroisoquinoline-6-carboxamide] | 70 nM | 590 nM |  |  |  |  |  |
